Test results from patent US20020137929A1, “1 - (3-heterocyclylphenyl) isothiourea, -isourea, -guanidine and -amidine herbicidal agents” (Intellectual Property Department, BASF Aktiengesellschaft, priority 1998, published 2002).

Key:
ABUTH (Velvetleaf) = experiment: Postemergence herbicidal evaluation; assay type: in vivo, Abutilon theophrasti
Outline: (§1)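 First, seedlings were raised for around two weeks. Next, test material in 50/50 acetone/water containing 0.5% TWEEN 20 was sprayed through a nozzle at 40 psi, equivalent to about 0.0156–0.500 kg/ha. Finally, after 4–5 weeks in the greenhouse, plants were rated 0–9.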

AMBEL (Ragweed, Common) [1] = experiment: Postemergence herbicidal evaluation; assay type: in vivo, Ambrosia artemisifolia
Outline: as §1

[2] = test system: CHEAL (Lambsquarters, Common); experiment: Postemergence herbicidal evaluation; assay type: in vivo, Chenopodium album
Outline: as §1

ECHCG (Barnyardgrass) = experiment: Postemergence herbicidal evaluation; assay type: in vivo, Echinochloa crus-galli
Outline: as §1

[3] = test system: GLXMAW (Soybean, Williams); experiment: Postemergence herbicidal evaluation; assay type: in vivo, Glycine max, (L.) Merr. cv Williams
Outline: as §1

ORYSAT (Rice, Tebonnet) = experiment: Postemergence herbicidal evaluation; assay type: in vivo, Oryza sativa, (L.) Tebonnet
Outline: as §1

ZEAMX (Corn, Field) = experiment: Postemergence herbicidal evaluation; assay type: in vivo, Zea mays
Outline: as §1

AMBEL (Ragweed, Common) [4] = experiment: Preemergence herbicidal evaluation; assay type: in vivo, Ambrosia artemisifolia; conditions: rated 4-5 weeks after treatment
Outline: (§2)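 Steps: mix seeds into potting soil; plant atop ~1 inch soil; spray compound in aqueous acetone (~0.0156-0.500 kg/ha equivalent); maintain in greenhouse with watering; rate visually 0-9 versus control at 4-5 weeks.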

CASOB (Sicklepod) = experiment: Preemergence herbicidal evaluation; assay type: in vivo, Cassia obtusifolia; conditions: rated 4-5 weeks after treatment
Outline: as §2

[5] = test system: CHEAL (Lambsquarters, Common); experiment: Preemergence herbicidal evaluation; assay type: in vivo, Chenopodium album; conditions: rated 4-5 weeks after treatment
Outline: as §2

GALAP (Galium) = experiment: Preemergence herbicidal evaluation; assay type: in vivo, Galium aparine; conditions: rated 4-5 weeks after treatment
Outline: as §2

CYPSE (Flatsedge) [6] = experiment: Preemergence weed control under flooded paddy conditions; assay type: in vivo, Cyperus serotinus; conditions: rated 3-4 weeks after treatment
Outline: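 Greenhouse paddy assay. Acetone/water (50/50 v/v) solutions dosed into flood water, equivalent to about 0.0313 to 0.500 kg/ha active ingredient, over seeds planted 0.5 cm deep in silt loam. Score: 0-9 visual, based on stand, vigor, malformation, size and chlorosis, 3 to 4 weeks after treatment.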

CYPIR (Rice Flatsedge) = experiment: Postemergence weed control under flooded paddy conditions; assay type: in vivo, Cyperus iria; conditions: postemergence weeds, rated 3 to 4 weeks after treatment
Outline: (§3)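 Injury ratings (0–9 scale covering stand, vigor, malformation, size, chlorosis and overall appearance versus control) were made three to four weeks after treatment. Test material, about 0.0313 to 0.500 kg/ha a.i. in 50/50 v/v aqueous/acetone, was added to flood water 1.5 to 3 cm deep over 3 to 5 cm weeds and 1.5 to 2.5 leaf rice.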

CYPSE (Flatsedge) [7] = experiment: as above; assay type: in vivo, Cyperus serotinus; conditions: postemergence weeds, rated 3 to 4 weeks after treatment
Outline: as §3

Compound: C=CCN1C(=O)C(CC(=O)O)SC1=Nc1cc(-n2c(=O)cc(C(F)(F)F)n(C)c2=O)c(F)cc1Cl (centres unmarked) [Compound 62, 3-Allyl-2-{{2-chloro-5-[3,6-dihydro-3-methyl-2,6-dioxo-4-(trifluoromethyl)-1(2H)-pyrimidinyl]-4-fluorophenyl}imino}-4-oxo-5-thiazolidineacetic acid]
- Postemergence herbicidal rating ABUTH (ABUTH (Velvetleaf); Rate 0.0158 kg/ha): 9.0
- Postemergence herbicidal rating ABUTH (ABUTH (Velvetleaf); Rate 0.0315 kg/ha): 9.0
- Postemergence herbicidal rating ABUTH (ABUTH (Velvetleaf); Rate 0.0630 kg/ha): 9.0
- Postemergence herbicidal rating AMBEL (AMBEL (Ragweed, Common) [1]; Rate 0.0158 kg/ha): 9.0
- Postemergence herbicidal rating AMBEL (AMBEL (Ragweed, Common) [1]; Rate 0.0315 kg/ha): 7.0
- Postemergence herbicidal rating AMBEL (AMBEL (Ragweed, Common) [1]; Rate 0.0630 kg/ha): 9.0
- Postemergence herbicidal rating CHEAL ([2]; Rate 0.0158 kg/ha): 9.0
- Postemergence herbicidal rating CHEAL ([2]; Rate 0.0315 kg/ha): 9.0
- Postemergence herbicidal rating CHEAL ([2]; Rate 0.0630 kg/ha): 9.0
- Postemergence herbicidal rating ECHCG (ECHCG (Barnyardgrass); Rate 0.0158 kg/ha): 4.0
- Postemergence herbicidal rating ECHCG (ECHCG (Barnyardgrass); Rate 0.0315 kg/ha): 6.0
- Postemergence herbicidal rating ECHCG (ECHCG (Barnyardgrass); Rate 0.0630 kg/ha): 7.0
- Postemergence herbicidal rating GLXMAW ([3]; Rate 0.0158 kg/ha): 7.5
- Postemergence herbicidal rating GLXMAW ([3]; Rate 0.0315 kg/ha): 7.5
- Postemergence herbicidal rating GLXMAW ([3]; Rate 0.0630 kg/ha): 8.5
- Postemergence herbicidal rating ORYSAT (ORYSAT (Rice, Tebonnet); Rate 0.0158 kg/ha): 4.5
- Postemergence herbicidal rating ORYSAT (ORYSAT (Rice, Tebonnet); Rate 0.0315 kg/ha): 5.0
- Postemergence herbicidal rating ORYSAT (ORYSAT (Rice, Tebonnet); Rate 0.0630 kg/ha): 7.0
- Postemergence herbicidal rating ZEAMX (ZEAMX (Corn, Field); Rate 0.0158 kg/ha): 7.5
- Postemergence herbicidal rating ZEAMX (ZEAMX (Corn, Field); Rate 0.0315 kg/ha): 8.0
- Postemergence herbicidal rating ZEAMX (ZEAMX (Corn, Field); Rate 0.0630 kg/ha): 8.0
- Preemergence herbicidal rating AMBEL (AMBEL (Ragweed, Common) [4]; rate 0.0156 kg/ha): 2.0
- Preemergence herbicidal rating AMBEL (AMBEL (Ragweed, Common) [4]; rate 0.0313 kg/ha): 5.0
- Preemergence herbicidal rating AMBEL (AMBEL (Ragweed, Common) [4]; rate 0.0625 kg/ha): 7.0
- Preemergence herbicidal rating AMBEL (AMBEL (Ragweed, Common) [4]; rate 0.1250 kg/ha): 9.0
- Preemergence herbicidal rating AMBEL (AMBEL (Ragweed, Common) [4]; rate 0.2500 kg/ha): 7.0
- Preemergence herbicidal rating CASOB (CASOB (Sicklepod); rate 0.0156 kg/ha): 0.0
- Preemergence herbicidal rating CASOB (CASOB (Sicklepod); rate 0.0313 kg/ha): 0.0
- Preemergence herbicidal rating CASOB (CASOB (Sicklepod); rate 0.0625 kg/ha): 1.0
- Preemergence herbicidal rating CASOB (CASOB (Sicklepod); rate 0.1250 kg/ha): 1.0
- Preemergence herbicidal rating CASOB (CASOB (Sicklepod); rate 0.2500 kg/ha): 1.0
- Preemergence herbicidal rating CHEAL ([5]; rate 0.0156 kg/ha): 7.0
- Preemergence herbicidal rating CHEAL ([5]; rate 0.0313 kg/ha): 9.0
- Preemergence herbicidal rating CHEAL ([5]; rate 0.0625 kg/ha): 9.0
- Preemergence herbicidal rating CHEAL ([5]; rate 0.1250 kg/ha): 9.0
- Preemergence herbicidal rating CHEAL ([5]; rate 0.2500 kg/ha): 9.0
- Preemergence herbicidal rating GALAP (GALAP (Galium); rate 0.0156 kg/ha): 0.0
- Preemergence herbicidal rating GALAP (GALAP (Galium); rate 0.0313 kg/ha): 0.0
- Preemergence herbicidal rating GALAP (GALAP (Galium); rate 0.0625 kg/ha): 0.0
- Preemergence herbicidal rating GALAP (GALAP (Galium); rate 0.1250 kg/ha): 6.0
- Preemergence herbicidal rating GALAP (GALAP (Galium); rate 0.2500 kg/ha): 9.0
- CYPSE herbicidal effect rating (CYPSE (Flatsedge) [6]; 0.0313 kg/ha): 0.0
- CYPSE herbicidal effect rating (CYPSE (Flatsedge) [6]; 0.0625 kg/ha): 0.0
- CYPSE herbicidal effect rating (CYPSE (Flatsedge) [6]; 0.1250 kg/ha): 0.0
- CYPSE herbicidal effect rating (CYPSE (Flatsedge) [6]; 0.2500 kg/ha): 0.0
- Herbicidal rating CYPIR (CYPIR (Rice Flatsedge); Rate 0.0313 kg/ha): 0.0
- Herbicidal rating CYPIR (CYPIR (Rice Flatsedge); Rate 0.0625 kg/ha): 2.0
- Herbicidal rating CYPIR (CYPIR (Rice Flatsedge); Rate 0.1250 kg/ha): 9.0
- Herbicidal rating CYPIR (CYPIR (Rice Flatsedge); Rate 0.2500 kg/ha): 9.0
- Herbicidal rating CYPSE (CYPSE (Flatsedge) [7]; Rate 0.0313 kg/ha): 0.0
- Herbicidal rating CYPSE (CYPSE (Flatsedge) [7]; Rate 0.0625 kg/ha): 0.0
- Herbicidal rating CYPSE (CYPSE (Flatsedge) [7]; Rate 0.1250 kg/ha): 0.0
- Herbicidal rating CYPSE (CYPSE (Flatsedge) [7]; Rate 0.2500 kg/ha): 0.0
